Drawing on PubChem BioAssay (NCI), this text covers GI50 and TGI for eight molecules.

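Step 1: Grow cells in 96-well plates. Step 2: Expose to compound for 48 hours at 5 concentrations. Step 3: Interpolate endpoints linearly; if unreached, use highest concentration. GI50 marks 50% less growth. Definition used: TGI = concentration required for complete inhibition of growth.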 Where only a bound is given, the exact number is not on record here.

Common to all, as to test: DTP human tumour cell line panel, 48 h
For assay [1], the system named is A549 NSCLC.
The test system of assay [2] is EKVX NSCLC.
The test system of assay [3] is HCT-15 colon.
In assay [4] the test system is NCI-H23 lung.
The test system of assay [5] is OVCAR-4 ovarian.
The subject of assay [6] is OVCAR-5 ovarian.
The subject of assay [7] is RXF 393 renal.
In assay [8] the test system is SK-MEL-28 melanoma.
The subject of assay [9] is SNB-19 CNS.
The test system of assay [10] is UACC-257 melanoma.

For orientation: GI50 means the concentration that inhibits growth by half. In general, TGI refers to the concentration at which net growth stops. On to `N#Cc1c(NC(=O)NCc2ccccc2)sc2c1CCCC2`, for which the GI50 in assay [1] is 0.731 µM; in assay [2], 2 µM; in [3] it was 0.443 µM; in assay [4] it was 1.18 µM; in [5] it was 1.78 µM; in [6], 2.39 µM. Besides, the GI50 in assay [7] is 0.481 µM; in assay [8] it was 6.37 µM; in [9], 0.675 µM; in [10], more than 71 µM. The TGI in assay [1] is more than 100 µM; in assay [2] it was more than 100 µM; in [3], more than 100 µM; in assay [4], more than 26.3 µM; in assay [5], more than 100 µM; in assay [6] it was more than 100 µM. The TGI in assay [7] is 14.1 µM; in assay [8] it was more than 100 µM; in [9], more than 100 µM; in assay [10], more than 100 µM.
With `Cc1ccc(S(=O)(=O)c2ccc(NC(=O)SCCC(=O)O)cc2)cc1`, the total growth inhibition concentration (TGI) in [1], in assay [2], in assay [3], in assay [4], in assay [5] and in [6] was more than 100 µM in each case. Also, the TGI in assay [7], in assay [8], in [9] and in [10] was more than 100 µM in each case.
As for `O=c1cc(-c2ccccc2)oc2ccc(OC/C(=N/O)c3ccccc3)cc12`, the GI50 in assay [1] was 3 µM; in assay [2], 3.82 µM; in assay [3], 2.19 µM; in assay [4], 2.4 µM; in assay [5] it was 29 µM; in [6], 43.8 µM. Besides, the GI50 in assay [7] is 2.46 µM; in assay [8], 8.38 µM; in assay [9], 2.34 µM; in assay [10], 5.12 µM. The TGI in assay [1], in assay [2], in assay [3], in [4], in assay [5] and in assay [6] was more than 50 µM throughout. In addition, the TGI in assay [7] was 14.8 µM; in assay [8], more than 50 µM; in assay [9], 35.2 µM; in assay [10], more than 50 µM.
For `CC1=C(O)c2cn(C)cc2C(=O)C1=O`, the TGI in assay [1], in assay [2], in assay [3], in [4], in assay [5] and in assay [6] was more than 100 µM in each case. For the same molecule, the total growth inhibition concentration (TGI) in assay [7], in assay [8], in assay [9] and in assay [10] was more than 100 µM throughout.
As for `COC1C(CO)OC(n2c3ccccc3c3c4c(c5c6ccccc6[nH]c5c32)C(=O)NC4=O)C(O)C1O` (stereo not drawn), the GI50 in [1] was 0.621 µM; in assay [2] it was 0.326 µM; in [3], 0.524 µM; in [4] it was 0.0951 µM; in assay [5], 0.342 µM; in assay [6] it was 0.27 µM. Further, the concentration for 50% growth inhibition (GI50) in [7] is 0.114 µM; in assay [8] it was 0.156 µM; in assay [9] it was 0.0277 µM; in assay [10] it was 0.103 µM. In addition, the TGI in [2] is 2.34 µM; in [3], more than 31.9 µM; in [4], 1.12 µM; in assay [5], 17.7 µM; in assay [6], 2.24 µM; in assay [7] it was 0.877 µM. For the same molecule, the results for the concentration for total growth inhibition (TGI) in assay [8] and in assay [9] were 8.49 µM and 6.64 µM, respectively.
As to `COc1ccc(/C=C(/C(=O)N2CCN(c3ccccc3)CC2)c2cc(OC)c(OC)c(OC)c2)cc1N`, the GI50 in assay [1] was 0.68 µM; in assay [2] it was 0.561 µM; in assay [3], 0.388 µM; in assay [4], 2.18 µM; in [5] it was 3.05 µM; in assay [6], 0.569 µM. In addition, the GI50 is 0.272 µM in assay [7], 1.47 µM in [8], 0.444 µM in [9] and 3.65 µM in [10]. Besides, the TGI in assay [1], in assay [2], in [3], in assay [4], in [5] and in assay [6] was more than 100 µM each time. The TGI in [7], in assay [8], in assay [9] and in [10] was more than 100 µM each time.
Regarding `CN1CCC(COc2cnc(-c3cccc(Cn4nc(-c5cccc(C#N)c5)ccc4=O)c3)nc2)CC1`, the GI50 in assay [1] is 3.52 µM; in [2], 9.45 µM; in assay [3], 3.47 µM; in assay [4] it was 4.93 µM; in assay [5], 2 µM; in [6], 7.69 µM. Also, the GI50 in assay [7] is 1.49 µM; in assay [8], 1.82 µM; in assay [9] it was 4.45 µM; in [10], 1.81 µM. The total growth inhibition concentration (TGI) in assay [1] is 14.7 µM; in assay [2], 40 µM; in assay [3], 15.5 µM; in assay [4], 21.6 µM; in [5] it was 5.32 µM; in assay [6], 27.5 µM. Moreover, the TGI in assay [7] is 3.08 µM; in assay [8], 3.52 µM; in assay [9] it was 25.7 µM; in assay [10], 3.52 µM.
With `Cc1ccc(Cl)cc1Nc1nc(C(F)(F)F)ccc1C(=O)N/N=C/c1cccnc1`, the GI50 was 3.32 µM in [1]; 1.32 µM in assay [2]; 0.693 µM in [3]; 5.6 µM in [4]; 1.33 µM in [5]; 3.44 µM in assay [6]. Moreover, the GI50 in assay [7] was 1.36 µM; in assay [8], 4.24 µM; in assay [9], 3.37 µM; in assay [10], 3.15 µM. In addition, the TGI in assay [1] was determined as 12.4 µM; in assay [2], 9.01 µM; in assay [3], 13.7 µM; in assay [4], 20.3 µM; in assay [5] it was 15.4 µM; in assay [6], 17.1 µM. The TGI in [7] was found to be 7.5 µM; in assay [8], 15.8 µM; in assay [9], 14.4 µM; in [10], 10.1 µM.
